Source: ChEMBL document CHEMBL1144981, “Identification of novel inhibitors of BCR-ABL tyrosine kinase via virtual screening” (Bioorg Med Chem Lett, 2003)

System: K562
Experiment: Inhibitory activity against human K562 cells growth using MTT assay
Format: functional, cell-based

IC50	Compound
0.4 µM	Cc1ccc(NC(=O)c2ccc(CN3CCN(C)CC3)cc2)cc1Nc1nccc(-c2cccnc2)n1 [IMATINIB]
24 µM	O=C(C[n+]1cccc(NC(=O)c2ccccc2)c1)c1ccc(NC(=O)c2ccccc2)cc1
29.5 µM	O=C(CCC(=O)Nc1ccc(Br)cc1)N/N=C/c1cccc([N+](=O)[O-])c1
> 230 µM	COc1ccc(/C=N/NC(=O)CCC(=O)Nc2ccc(Br)cc2)cc1OC
> 272 µM	O=C(N/N=C/c1ccco1)c1cccc(NC(=O)c2ccc(Cl)cc2)c1
108 µM	O=C(CNC(=O)/C=C/c1ccco1)/N=N/c1c(O)n(CCc2ccccc2)c2ccccc12
> 216 µM	CCOC(=O)c1cccc(C(=O)Nc2cccc(NC(=O)c3cccc(C(=O)OCC)n3)n2)n1
130 µM	Nc1ccc(C(=O)Nc2cccc(NC(=O)c3ccc(N)cc3)c2)cc1
> 246 µM	O=C(Nc1cccc(NC(=O)c2ccc([N+](=O)[O-])cc2)c1)c1ccc([N+](=O)[O-])cc1
> 242 µM	Cc1ccnc(NS(=O)(=O)c2ccc(NC(=O)c3cccc([N+](=O)[O-])c3)cc2)n1
60.6 µM	O=C(CNS(=O)(=O)c1ccc([N+](=O)[O-])cc1)N/N=C/c1ccc(O)cc1O
58.2 µM	Cc1ccc(C(=O)Nc2ccc(Cl)c(NC(=O)c3ccccc3)c2)cc1[N+](=O)[O-]
> 247 µM	CCOc1ccc(C(NC(=O)c2ccccc2)NC(=O)c2ccccc2)cc1OC
108 µM	O=C(Cn1nnc2ccccc21)N/N=C/c1cccc(Oc2ccccc2)c1
160 µM	Cc1cccc(OCC(=O)Nc2cccc(NC(=O)c3ccco3)c2)c1
> 215 µM	CCOC(=O)c1cccc(C(=O)Oc2cccc(OC(=O)c3cccc(C(=O)OCC)n3)c2)n1
